Assays:
[1] = tested on: interaction between mTOR and Rheb / mTOR signaling; assay: IP analysis of HA-RhebQ64L transfected cells treated with 1-butanol, t-butanol, PA, rapamycin; assay type: cell-based
Procedure: (§1) After harvesting COS7 cells, total extracts were prepared by brief sonication in ice-cold lysis buffer (40 mM HEPES pH7.5, 120 mM NaCl, 1 mM EDTA, 10 mM pyrophosphate, 10 mM glycerophosphate, 50 mM NaF, 1.5 mM Na3VO4, 0.5% CHAPS, 1 mM PMSF, protease inhibitor cocktails). Clarified extracts were mixed with 2 μg of the respective antibodies. Then protein A-Sepharose beads were added to isolate the antibody complex. After four washings with lysis buffer, the final immunoprecipitates were washed once with wash buffer (50 mM HEPES pH7.5, 150 mM NaCl), and then subjected to SDS-PAGE using Hyperfilm (Amersham Pharmacia Biotech), nitrocellulose membranes (Watmann), Power supply (Amersham Pharmacia Biotech), Electrophoretic Transfer unit (Hoefer Scientific Instruments), and ECL™ (Amersham Pharmacia Biotech).
This example examined the speculation that PA could increase Rheb/mTOR binding and activate mTOR through PA-dependent conformational change of mTOR.

S6K1 phosphorylation = assay: Leucine-induced S6K1 phosphorylation (Western blot); assay type: cell-based
Procedure: COS7 cells (ATCC, CRL-1651) were maintained in a 5% CO2 humidified atmosphere at 37° C. and fed DMEM supplemented with 10% bovine calf serum (HyClone). HEK293 cells (ATCC: CRL-1573) were fed DMEM supplemented with 10% fetal bovine serum (HyClone). Cells grown on tissue culture dishes were transiently transfected using LipofectAMINE, as described in “Park, J. B. et al. Cardiac phospholipase D2 localizes to sarcolemmal membranes and is inhibited by alpha-actinin in an ADP-ribosylation factor-reversible manner. J. Biol. Chem. 275, 21295-21301 (2000)” and “Lee, S. et al. Actin directly interacts with phospholipase D, inhibiting its activity. J. Biol. Chem. 276, 28252-28260 (2001)”, which are hereby incorporated by reference. Cells were allowed to express the recombinant proteins for 24 hr after transfection and then deprived of serum for additional 24 hr. The cells were then subjected to leucine deprivation, co-immunoprecipitation, or GST pull-down analysis. Leucine deprivation was performed as previously described 10 with minor modification. Briefly, cells were deprived of serum first for 24 hrs and then subjected to leucine deprivation in leucine-free RPMI 1640 medium. […]

mTOR complex = target: T1, mTOR complex (Homo sapiens, UniProt P42345); assay: In vitro binding of purified GST-Rheb to mTOR/raptor/PLD2 immunoprecipitate; settings: PA 10 μM, GST-Rheb 40 nM, in the presence of GTPγS 100 μM (FIG. 13)
T1 construct: expressed in transfected cells; host or cells: The mTOR/raptor/PLD2 complex came from transfected mammalian cells; GST-Rheb was expressed in E. coli
Procedure: After incubation at 4° C. for 2 hr, the beads were washed and then subjected to SDS-PAGE. E. coli and COS7 cells were lysed with the lysis buffer used for the co-immunoprecipitation. Hexa-histidine (His6)-tagged PLD2 was purified from detergent extracts of baculovirus-infected Sf9 cells (Invitrogen) by chelating Sepharose affinity column chromatography, as previously described in Lee, S. et al. Actin directly interacts with phospholipase D, inhibiting its activity. J. Biol. Chem. 276, 28252-28260 (2001), which is hereby incorporated by reference. […] In vitro binding analysis was done in ice-cold lysis buffer (as used for the co-immunoprecipitation but including 10% glycerol).
HA-mTOR, myc-raptor, and PLD2 were transfected and resulting lysates were immunoprecipitated with anti-HA antibody.

mTOR pathway = settings: cited from earlier work
[2] = tested on: interaction between PLD2 and mTOR; assay: Co-IP of endogenous PLD2 with mTOR (anti-mTOR antibody); assay type: cell-based; settings: rapamycin: mTOR inhibition; leucine: leucine-deprived COS7 and HEK293 cells (FIG. 17)
Procedure: as §1

PLD2 = target: T2, PLD2 (Homo sapiens, UniProt O14939); assay: In vivo PLD assay (PBt formation) in PLD2wt transfected cells; assay type: cell-based; settings: leucine-free vs leucine-added media, 0.4% 1-butanol (FIG. 16)
T2 construct: expressed in transfected cells
Procedure: In vivo PLD activity was assayed by measuring the formation of phosphatidyl-butanol as described in “Lee, S. et al. Actin directly interacts with phospholipase D, inhibiting its activity. J. Biol. Chem. 276, 28252-28260 (2001)” and “Ha, S. H., Kim, D. H., Kim, I. S., Kim, J. H., Lee, M. N., Lee, H. J., Kim, J. H., Jang, S. K., Suh, P. G., Ryu, S. H. PLD2 forms a functional complex with mTOR/raptor to transduce mitogenic signals. Cell. Signal. 18 (2006) 2283-2291”, which are hereby incorporated by reference.
In brief, cells were loaded with [^3H]myristic acid (2 μCi/ml) for 8 hr and then washed twice with DMEM. Labeled cells were incubated with 0.4% butanol for 10 min to measure basal PLD activity. Total lipids were extracted with 1.2 ml of methanol:1M NaCl:chloroform (1:1:1 by volume) and then separated by thin-layer chromatography on silica gel plates. The amount of [^3H]phosphatidyl-butanol formed was expressed as a percentage of total [^3H]lipid to account for cell labeling efficiency differences.
Until now, the function of PLD2 in nutrient signaling has not been proposed. To this end, the importance of PLD2 in nutrient signaling was tested. […] Based on the result, PLD2 activity in response to nutrient levels was checked. PLD2^wt was transfected and allowed to express for 24 hr.

CCCCO [1-butanol]
interaction between mTOR and Rheb ([1]; 1-butanol 0.4%, HA-RhebQ64L cells serum deprived 24 hr (FIG. 12)): attenuated | stimulatory effect of leucine on S6K1 (S6K1 phosphorylation; 1-butanol treatment): significantly reduced

CCCCCC(=O)OC[C@H](COP(=O)(O)O)OC(=O)CCCCC [PA, C-6 phosphatidic acid]
Rheb activation of mTOR signaling, rescue from 1-butanol-treated cells ([1]; C-6 PA 100 uM (FIG. 12)): essentially required | GST-Rheb binding to mTOR complex (mTOR complex): increased | rescue of mTOR activity by PA (mTOR pathway; PLD1 expression lowered): could rescue | activation of mTOR pathway by PA (mTOR pathway; PLD2 expression lowered): could no longer activate

CC(C)C[C@H](N)C(=O)O [leucine]
interaction between PLD2 and mTOR [2]: increased | PLD2 activity (PBt formation) (PLD2): reversibly regulated

PLD2 siRNA: 21-nucleotide siRNA duplex (SEQ ID NO: 9/10) corresponding to human PLD2 coding nucleotides 703-723 (chain 1 AAGAGGUGGCUGGUGGUGAAG; chain 2 CUUCACCACCAGCCACCUCUU; listed as RNA, chemistry not given here)
effect of leucine on S6K1 phosphorylation (S6K1 phosphorylation; leucine deprivation 45 min, then leucine 15 min (0-100 μM FIG. 20; 100 μM FIG. 21)): completely downregulated

Reference: patent US8168177B2, “Method of regulating mammalian target-of-rapamycin activity by interaction between phospholipase D and Rheb” (Postech Academy-Industry Foundation, priority 2006, dated 2012)
